Results as given in paper PMC3671673, “In Vitro Morphological Assessment of Apoptosis Induced by Antiproliferative Constituents from the Rhizomes of Curcuma zedoaria” (Evidence-based Complementary and Alternative Medicine : eCAM, 2013).

Columns and labels:
[1] = tested on: HCT-116 cells; assay: Morphological changes by phase contrast inverted microscope, HCT-116; assay type: cell-based, human; conditions: HCT-116, 48 h, 12.5-50 μg/mL, phase contrast 200x
Experimental: (§1) Observation of morphological changes of apoptotic cells was performed according to the method with slight modifications. Briefly, 5 × 10^5 cells were incubated for 48 hours with or without selected compounds at concentrations of 12.5, 25, 40, and 50 μg/mL in a 60 mm diameter tissue culture dishes. The medium was discarded and cells were washed once with PBS. The morphological changes of the apoptotic cells were observed using phase contrast inverted microscope (Leica DMI 3000B, Germany) at 200x magnifications.

[2] = tested on: MCF-7 cells; assay: Morphological changes by phase contrast inverted microscope, MCF-7; assay type: cell-based, human; conditions: MCF-7, 48 h, 12.5-50 μg/mL, phase contrast 200x
Experimental: as §1

C=CC1(C)Cc2occ(C)c2C(=O)C1C(=C)C (stereo not shown) [Curzerenone, curzerenone]
morphological changes (in words) [1]: typical apoptotic features
morphological changes (in words) [2]: typical apoptotic features

C=C1CCC(C(C)C)=CC2C1CC[C@@]2(C)O (stereo partly shown) [Alismol, alismol]
morphological changes (in words) [1]: typical apoptotic features
morphological changes (in words) [2]: typical apoptotic features
